Data published in patent US3955959A, “Herbicide for use in transplanted rice” (priority 1974, dated 1976).
Values joined by “and” are separate entries in the source; they are usually repeats but may differ in a detail not shown here. Equal values may be shown once.

Tests used:
[1] = tested on: weeds in ordinary transplanted rice; assay: Example 4 field test, overall weed control; format: in vivo
Source text: (§1) Treatments were replicated four times.

transplanted rice [2] = assay: Example 1 field test, rice injury; format: in vivo, rice (Watanabe variety)
Source text: (§2) In the field test 48 day-old seedlings (Watanabe variety) were transplanted to plots 2.5 × 6 m. seeded with the weed seeds indicated in Table 1. At 5 and 10 DAT periods, the herbicides were applied to the plants (now at the 1.2 and 2.0 leaf stage, respectively, of grass weed) at the indicated rate in kilograms per hectare (kg/ha). The weed control and rice injury results for 3 replications are reported in percentages as of the indicated times of observation. The percentages given in the "Perennials" column are based on the weight of the weeds at 63 DAT, i.e., 42 gms/3.6 m^2 for the weedy check.

[3] = tested on: pigweed, annual morning glory, smartweed, cocklebur, Italian ryegrass, crop rye, sorghum, quack grass and nutsedge; assay: Example 9 soil life bioassay, greenhouse; format: in vivo
Method: In this example, additional tests were run to compare the relative soil life of Herbicides A and B under greenhouse conditions.
In the soil life tests, a standardized procedure involving a series of bioassay periods, or cycles, was used. In the procedure, an arbitrary, selected mixture of four grasses, four broadleaf weeds and a sedge were seeded into Ray silt loam soil previously prepared and treated with the herbicide under test and periodically watered by sub-irrigation. After a six-week bioassay period, (i.e., the first cycle), the plants were evaluated visually for herbicidal activity. That soil in which at least 75% of three or more grass and/or broadleaf species or of the sedge alone were controlled at the end of the cycle, was advanced to a second cycle, or six-week bioassay period. The second cycle involved the same procedure as the first cycle, except that additionally, the equivalent of 50 lbs/ac (56.05 Kgs/ha) of nitrogen was mixed into the cover layer of the soil which was reseeded with the mixture of plants mentioned earlier. The plants were evaluated for herbicidal activity at the end of this six-week period and, again, the soil in which at least 75% of the grasses or broadleaf species or of the sedge alone were controlled was advanced to a third cycle. The foregoing procedure was repeated until herbicidal activity fell below that required for initiation of a new cycle.
For purposes of the soil life tests, the following spectrum of plants were used as indicators: pigweed, annual morning glory, smartweed, cocklebur, Italian ryegrass, crop rye, sorghum, quack grass and nutsedge.

Cyperus difformis = assay: Example 2 field test, weed control, Chia Yi, Taiwan; format: in vivo; settings: obs. 63 DAT
Method: In the tests described in the tables below, the herbicides were formulated and used in granular form in conventional manner. […] The commercial herbicide used was a granular product having 5% active ingredient.
In the field tests of the herbicide of this invention with transplanted rice, the rice seedlings were grown in conventional manner, by seeding the rice in a typical seedbed of sandy loam to clay soil of the country wherein the test was conducted. For laboratory and greenhouse work the seedlings were obtained by seeding rice in a mixture of soil, e.g., Ray silt loam, and peat in wood flats. For purposes of testing the herbicides on younger rice seedlings (infant or Dapog) the rice was usually allowed to grow for 6-15 days before lifting for transplanting. Older (ordinary) rice plants were usually grown for a period of about 2-3 weeks, or as much as about 7 weeks before lifting. Since the period of growth is dependent upon climatic conditions, a better measure of when to transplant the rice seedling is the leaf stage of growth; for infant or Dapog rice the seedling is lifted at the 1.5-2 leaf stage of growth, and for ordinary seedlings at the 2.5-5 leaf stage. The seedlings were then transplanted to the test plots for evaluation of the herbicide for injury against weed species present with the transplanted rice. The herbicides were then applied to the growth medium of the weeds and transplant rice, either preemergent or postemergent with respect to the weeds and postemergent with respect to the transplanted rice. […] Application rates given in the tables refer to the amount of active ingredient used.
Rice seedlings (ordinary) of Tainan No. 5 variety (japonica) were transplanted at 19 days of growth. Granular formulations of Herbicides A and B were applied at the 1 leaf stage of grass weed (4 DAT) and 2.5 leaf stage of grass weed (10 DAT).

transplanted rice [4] = assay: Example 1 field test, rice yield; format: in vivo, rice (Watanabe variety); settings: in vivo
Source text: as §2

[5] = tested on: Mv (Monochoria vaginalis); assay: Example 1 field test, weed control in transplanted rice, Iri, Korea; format: in vivo; settings: av. of 36 and 63 DAT
Source text: as §2

[6] = tested on: Eo (Echinochloa oryzicola); assay: as above; format: in vivo; settings: av. of 36 and 63 DAT
Source text: as §2

Aj (Aneiliema japonica) = assay: as above; format: in vivo; settings: av. of 36 and 63 DAT
Source text: as §2

Ci (Cyperus iria) = assay: as above; format: in vivo; settings: av. of 36 and 63 DAT
Source text: as §2

[7] = tested on: Sedges: Cd, Ci, Fl (Cyperus difformis, Cyperus iria, Fimbristylis littoralis); assay: Example 4 field test on ordinary rice, weed control, Munoz, Philippines; format: in vivo; settings: obs. 36 DAT
Source text: as §1

[8] = tested on: Grass: Ec and Ecol (Echinochloa crusgalli, Echinochloa colonum); assay: as above; format: in vivo; settings: obs. 36 DAT
Source text: as §1

CCCCOCN(C(=O)CCl)c1c(C)cccc1C(C)(C)C [Herbicide A, n-(butoxymethyl)-6'-tert-butyl-2-chloro-o-acetotoluidide]
control of all weeds ([1]; 5 DAT): complete control of all weeds
weed control in words ([1]; 14 DAT): dropped off
weed control vs Herbicide B ([1]; 14 DAT): more weed control
% Rice Injury (transplanted rice [2]; 5 DAT, 1.0 kg/ha, obs. 21 DAT): 5%
% Rice Injury (transplanted rice [2]; 5 DAT, 1.0 kg/ha, obs. 42 DAT): 0%
% Rice Injury (transplanted rice [2]; 5 DAT, 2.0 kg/ha, obs. 21 DAT): 10%
% Rice Injury (transplanted rice [2]; 5 DAT, 2.0 kg/ha, obs. 42 DAT): 0%
% Rice Injury (transplanted rice [2]; 5 DAT, .25 kg/ha, obs. 21 DAT): 0%
% Rice Injury (transplanted rice [2]; 5 DAT, .25 kg/ha, obs. 42 DAT): 0%
% Rice Injury (transplanted rice [2]; 5 DAT, .5 kg/ha, obs. 21 DAT): 0%
% Rice Injury (transplanted rice [2]; 5 DAT, .5 kg/ha, obs. 42 DAT): 0%
% Rice Injury (transplanted rice [2]; 10 DAT, 1.0 kg/ha, obs. 21 DAT): 0%
% Rice Injury (transplanted rice [2]; 10 DAT, 1.0 kg/ha, obs. 42 DAT): 0%
% Rice Injury (transplanted rice [2]; 10 DAT, 2.0 kg/ha, obs. 21 DAT): 10%
% Rice Injury (transplanted rice [2]; 10 DAT, 2.0 kg/ha, obs. 42 DAT): 0%
% Rice Injury (transplanted rice [2]; 10 DAT, .25 kg/ha, obs. 21 DAT): 0%
% Rice Injury (transplanted rice [2]; 10 DAT, .25 kg/ha, obs. 42 DAT): 0%
% Rice Injury (transplanted rice [2]; 10 DAT, .5 kg/ha, obs. 21 DAT): 0%
% Rice Injury (transplanted rice [2]; 10 DAT, .5 kg/ha, obs. 42 DAT): 0%
early season injury to rice (transplanted rice [2]; Example 1, outgrown): slight early season injury to rice was outgrown
Soil Longevity ([3]; 5 lbs/Ac (5.605 kg/ha), Ray silt loam): 29 Weeks
residual preemergence activity longer than Herbicide B ([3]; equal rates, 5 lbs/Ac): about 50%
% Weed Control (Cyperus difformis) (Cyperus difformis; 4 DAT, 1.0 kg/ha): 100%
% Weed Control (Cyperus difformis) (Cyperus difformis; 4 DAT, 2.0 kg/ha): 100%
% Weed Control (Cyperus difformis) (Cyperus difformis; 4 DAT, .25 kg/ha): 100%
% Weed Control (Cyperus difformis) (Cyperus difformis; 4 DAT, .5 kg/ha): 100%
% Weed Control (Cyperus difformis) (Cyperus difformis; 10 DAT, 1.0 kg/ha): 100%
% Weed Control (Cyperus difformis) (Cyperus difformis; 10 DAT, 2.0 kg/ha): 100%
% Weed Control (Cyperus difformis) (Cyperus difformis; 10 DAT, .25 kg/ha): 100%
% Weed Control (Cyperus difformis) (Cyperus difformis; 10 DAT, .5 kg/ha): 100%
Yield (% of Hand-weeded Check) (transplanted rice [4]): 102% and 101% and 100% and 98% and 99%
% Weed Control (Mv) ([5]; 5 DAT, 1.0 kg/ha): 89%
% Weed Control (Mv) ([5]; 5 DAT, 2.0 kg/ha): 82%
% Weed Control (Mv) ([5]; 5 DAT, .25 kg/ha): 72%
% Weed Control (Mv) ([5]; 5 DAT, .5 kg/ha): 80%
% Weed Control (Mv) ([5]; 10 DAT, 1.0 kg/ha): 72%
% Weed Control (Mv) ([5]; 10 DAT, 2.0 kg/ha): 83%
% Weed Control (Mv) ([5]; 10 DAT, .25 kg/ha): 53%
% Weed Control (Mv) ([5]; 10 DAT, .5 kg/ha): 80%
% Weed Control (Eo) ([6]; 5 DAT, 1.0 kg/ha): 91%
% Weed Control (Eo) ([6]; 5 DAT, 2.0 kg/ha): 94%
% Weed Control (Eo) ([6]; 5 DAT, .25 kg/ha): 86%
% Weed Control (Eo) ([6]; 5 DAT, .5 kg/ha): 93%
% Weed Control (Eo) ([6]; 10 DAT, 1.0 kg/ha): 90%
% Weed Control (Eo) ([6]; 10 DAT, 2.0 kg/ha): 92%
% Weed Control (Eo) ([6]; 10 DAT, .25 kg/ha): 82%
% Weed Control (Eo) ([6]; 10 DAT, .5 kg/ha): 88%
% Weed Control (Aj) (Aj (Aneiliema japonica); 5 DAT, 1.0 kg/ha): 81%
% Weed Control (Aj) (Aj (Aneiliema japonica); 5 DAT, 2.0 kg/ha): 86%
% Weed Control (Aj) (Aj (Aneiliema japonica); 5 DAT, .25 kg/ha): 66%
% Weed Control (Aj) (Aj (Aneiliema japonica); 5 DAT, .5 kg/ha): 84%
% Weed Control (Aj) (Aj (Aneiliema japonica); 10 DAT, 1.0 kg/ha): 79%
% Weed Control (Aj) (Aj (Aneiliema japonica); 10 DAT, 2.0 kg/ha): 88%
% Weed Control (Aj) (Aj (Aneiliema japonica); 10 DAT, .25 kg/ha): 73%
% Weed Control (Aj) (Aj (Aneiliema japonica); 10 DAT, .5 kg/ha): 79%
% Weed Control (Ci) (Ci (Cyperus iria); 5 DAT, 1.0 kg/ha): 100%
% Weed Control (Ci) (Ci (Cyperus iria); 5 DAT, 2.0 kg/ha): 95%
% Weed Control (Ci) (Ci (Cyperus iria); 5 DAT, .25 kg/ha): 85%
% Weed Control (Ci) (Ci (Cyperus iria); 5 DAT, .5 kg/ha): 95%
% Weed Control (Ci) (Ci (Cyperus iria); 10 DAT, 1.0 kg/ha): 97%
% Weed Control (Ci) (Ci (Cyperus iria); 10 DAT, 2.0 kg/ha): 93%
% Weed Control (Ci) (Ci (Cyperus iria); 10 DAT, .25 kg/ha): 74%
% Weed Control (Ci) (Ci (Cyperus iria); 10 DAT, .5 kg/ha): 98%
% Weed control, Sedges (Cd, Ci, Fl) ([7]; 5 DAT, 1.0 kg/ha): 100%
% Weed control, Sedges (Cd, Ci, Fl) ([7]; 5 DAT, 2.0 kg/ha): 100%
% Weed control, Sedges (Cd, Ci, Fl) ([7]; 5 DAT, .25 kg/ha): 100%
% Weed control, Sedges (Cd, Ci, Fl) ([7]; 5 DAT, .5 kg/ha): 100%
% Weed control, Sedges (Cd, Ci, Fl) ([7]; 14 DAT, 1.0 kg/ha): 60%
% Weed control, Sedges (Cd, Ci, Fl) ([7]; 14 DAT, 2.0 kg/ha): 60%
% Weed control, Sedges (Cd, Ci, Fl) ([7]; 14 DAT, .25 kg/ha): 60%
% Weed control, Sedges (Cd, Ci, Fl) ([7]; 14 DAT, .5 kg/ha): 50%
% Weed control, Grass (Ec and Ecol) ([8]; 5 DAT, 1.0 kg/ha): 100%
% Weed control, Grass (Ec and Ecol) ([8]; 5 DAT, 2.0 kg/ha): 100%
% Weed control, Grass (Ec and Ecol) ([8]; 5 DAT, .25 kg/ha): 100%
% Weed control, Grass (Ec and Ecol) ([8]; 5 DAT, .5 kg/ha): 100%
% Weed control, Grass (Ec and Ecol) ([8]; 14 DAT, 1.0 kg/ha): 80%
% Weed control, Grass (Ec and Ecol) ([8]; 14 DAT, 2.0 kg/ha): 80%
% Weed control, Grass (Ec and Ecol) ([8]; 14 DAT, .25 kg/ha): 60%
% Weed control, Grass (Ec and Ecol) ([8]; 14 DAT, .5 kg/ha): 80%
